In US20020111274A1, “1-alkyl-3-[1-(substituted phenyl) benzotriazol-6-yl] uracils” (BASF Aktiengesellschaft, priority 2000, published 2002):

Columns and labels:
Design in all cases: scale not given here
ECHOG Barnyardgrass [1] = test: Preemergence herbicidal evaluation, ECHOG; type: in vivo, Echinochloa crus-galli, (L.) Beau; conditions: preemergence
Summary of the method: (§1)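 Seeds mixed with potting soil in cups, then sprayed preemergence with aqueous acetone test solution at about 0.013 to 0.800 kg per hectare equivalent. Cups kept under standard greenhouse care; plants rated on a visual scale four to five weeks after treatment.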

SETVI Foxtail, Green [2] = test: Preemergence herbicidal evaluation, SETVI; type: in vivo, Setaria viridis, (L.) Beau; conditions: preemergence
Summary of the method: as §1

CASOB Sicklepod [3] = test: Preemergence herbicidal evaluation, CASOB; type: in vivo, Cassia obtusifolia, L.; conditions: preemergence
Summary of the method: as §1

[4] = test system: IPOHE Morningglory, Ivyleaf; test: Postemergence herbicidal evaluation, IPOHE; type: in vivo, Ipomoea hederacea, (L.) Jacq.; conditions: postemergence spray, rated about two-three weeks after treatment
Summary of the method: (§2)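 Ratings from greenhouse plants scored about two to three weeks after a foliar spray; data from multiple tests averaged. Seedlings about two weeks old received roughly 0.006–0.400 kg/ha active compound in 80/20 acetone/water with 1.0% methylated seed oil.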

ORYSAT Rice, Tebonnet [5] = test: Postemergence herbicidal evaluation, ORYSAT; type: in vivo, Oryza sativa, (L.); conditions: postemergence spray, rated about two-three weeks after treatment
Summary of the method: as §2

ABUTH Velvetleaf [6] = test: Postemergence herbicidal evaluation, ABUTH; type: in vivo, Abutilon theophrasti, Medic.; conditions: postemergence spray, rated about two-three weeks after treatment
Summary of the method: as §2

[7] = test system: TRZAWR Wheat, Winter, cv Riband; test: Postemergence herbicidal evaluation, TRZAWR; type: in vivo, Triticum aestivum; conditions: postemergence spray, rated about two-three weeks after treatment
Summary of the method: as §2

GALAP Galium [8] = test: Postemergence herbicidal evaluation, GALAP; type: in vivo, Galium aparine; conditions: postemergence spray, rated about two-three weeks after treatment
Summary of the method: as §2

ABUTH Velvetleaf [9] = test: Preemergence herbicidal evaluation, ABUTH; type: in vivo, Abutilon theophrasti, Medic.; conditions: preemergence
Summary of the method: as §1

GALAP Galium [10] = test: Preemergence herbicidal evaluation, GALAP; type: in vivo, Galium aparine; conditions: preemergence
Summary of the method: as §1

ZEAMX Corn, Field [11] = test: Preemergence herbicidal evaluation, ZEAMX; type: in vivo, Zea mays, L. (Sammel-Bezeichnung); conditions: preemergence
Summary of the method: as §1

[12] = test system: IPOHE Morningglory, Ivyleaf; test: Preemergence herbicidal evaluation, IPOHE; type: in vivo, Ipomoea hederacea, (L.) Jacq.; conditions: preemergence
Summary of the method: as §1

AMBEL Ragweed, Common [13] = test: Preemergence herbicidal evaluation, AMBEL; type: in vivo, Ambrosia artemisifolia, L.; conditions: preemergence
Summary of the method: as §1

CASOB Sicklepod [14] = test: Postemergence herbicidal evaluation, CASOB; type: in vivo, Cassia obtusifolia, L.; conditions: postemergence spray, rated about two-three weeks after treatment
Summary of the method: as §2

[15] = test system: TRZAWR Wheat, Winter, cv Riband; test: Preemergence herbicidal evaluation, TRZAWR; type: in vivo, Triticum aestivum; conditions: preemergence
Summary of the method: as §1

[16] = test system: CHEAL Lambsquarters, Common; test: Postemergence herbicidal evaluation, CHEAL; type: in vivo, Chenopodium album, L.; conditions: postemergence spray, rated about two-three weeks after treatment
Summary of the method: as §2

GLXMAW Soybean, Williams [17] = test: Preemergence herbicidal evaluation, GLXMAW; type: in vivo, Glycine max, (L.) Merr. cv Williams; conditions: preemergence
Summary of the method: as §1

GLXMAW Soybean, Williams [18] = test: Postemergence herbicidal evaluation, GLXMAW; type: in vivo, Glycine max, (L.) Merr. cv Williams; conditions: postemergence spray, rated about two-three weeks after treatment
Summary of the method: as §2

AMBEL Ragweed, Common [19] = test: Postemergence herbicidal evaluation, AMBEL; type: in vivo, Ambrosia artemisifolia, L.; conditions: postemergence spray, rated about two-three weeks after treatment
Summary of the method: as §2

ZEAMX Corn, Field [20] = test: Postemergence herbicidal evaluation, ZEAMX; type: in vivo, Zea mays, L. (Sammel-Bezeichnung); conditions: postemergence spray, rated about two-three weeks after treatment
Summary of the method: as §2

ECHOG Barnyardgrass [21] = test: Postemergence herbicidal evaluation, ECHOG; type: in vivo, Echinochloa crus-galli, (L.) Beau; conditions: postemergence spray, rated about two-three weeks after treatment
Summary of the method: as §2

[22] = test system: CHEAL Lambsquarters, Common; test: Preemergence herbicidal evaluation, CHEAL; type: in vivo, Chenopodium album, L.; conditions: preemergence
Summary of the method: as §1

SETVI Foxtail, Green [23] = test: Postemergence herbicidal evaluation, SETVI; type: in vivo, Setaria viridis, (L.) Beau; conditions: postemergence spray, rated about two-three weeks after treatment
Summary of the method: as §2

ORYSAT Rice, Tebonnet [24] = test: Preemergence herbicidal evaluation, ORYSAT; type: in vivo, Oryza sativa, (L.); conditions: preemergence
Summary of the method: as §1

## COc1ccc(Cl)cc1-n1nnc2cc(F)c(-n3c(=O)cc(C(F)(F)F)n(C)c3=O)cc21 [Example 30]
ECHOG Barnyardgrass [1]; rate 0.016 kg/ha
  ECHCG herbicidal rating: 1.0
ECHOG Barnyardgrass [1]; rate 0.032 kg/ha
  ECHCG herbicidal rating: 5.0
ECHOG Barnyardgrass [1]; rate 0.062 kg/ha
  ECHCG herbicidal rating: 7.0
ECHOG Barnyardgrass [1]; rate 0.125 kg/ha
  ECHCG herbicidal rating: 7.0
SETVI Foxtail, Green [2]; rate 0.016 kg/ha
  SETVI herbicidal rating: 4.0
SETVI Foxtail, Green [2]; rate 0.032 kg/ha
  SETVI herbicidal rating: 7.0
SETVI Foxtail, Green [2]; rate 0.062 kg/ha
  SETVI herbicidal rating: 9.0
SETVI Foxtail, Green [2]; rate 0.125 kg/ha
  SETVI herbicidal rating: 9.0
CASOB Sicklepod [3]; rate 0.016 kg/ha
  CASOB herbicidal rating: 0.0
CASOB Sicklepod [3]; rate 0.032 kg/ha
  CASOB herbicidal rating: 1.0
CASOB Sicklepod [3]; rate 0.062 kg/ha
  CASOB herbicidal rating: 0.0
CASOB Sicklepod [3]; rate 0.125 kg/ha
  CASOB herbicidal rating: 2.0
[4]; 0.008 kg/ha
  Postemergence herbicidal rating IPOHE: 9.0
[4]; 0.016 kg/ha
  Postemergence herbicidal rating IPOHE: 9.0
[4]; 0.032 kg/ha
  Postemergence herbicidal rating IPOHE: 9.0
[4]; 0.062 kg/ha
  Postemergence herbicidal rating IPOHE: 9.0
ORYSAT Rice, Tebonnet [5]; 0.008 kg/ha
  Postemergence herbicidal rating ORYSAT: 3.5
ORYSAT Rice, Tebonnet [5]; 0.016 kg/ha
  Postemergence herbicidal rating ORYSAT: 3.5
ORYSAT Rice, Tebonnet [5]; 0.032 kg/ha
  Postemergence herbicidal rating ORYSAT: 4.0
ORYSAT Rice, Tebonnet [5]; 0.062 kg/ha
  Postemergence herbicidal rating ORYSAT: 4.5
ABUTH Velvetleaf [6]; 0.008 kg/ha
  Postemergence herbicidal rating ABUTH: 9.0
ABUTH Velvetleaf [6]; 0.016 kg/ha
  Postemergence herbicidal rating ABUTH: 9.0
ABUTH Velvetleaf [6]; 0.032 kg/ha
  Postemergence herbicidal rating ABUTH: 9.0
ABUTH Velvetleaf [6]; 0.062 kg/ha
  Postemergence herbicidal rating ABUTH: 9.0
[7]; 0.008 kg/ha
  Postemergence herbicidal rating TRZAWR: 3.5
[7]; 0.016 kg/ha
  Postemergence herbicidal rating TRZAWR: 3.5
[7]; 0.032 kg/ha
  Postemergence herbicidal rating TRZAWR: 4.0
[7]; 0.062 kg/ha
  Postemergence herbicidal rating TRZAWR: 4.5
GALAP Galium [8]; 0.008 kg/ha
  Postemergence herbicidal rating GALAP: 1.0
GALAP Galium [8]; 0.016 kg/ha
  Postemergence herbicidal rating GALAP: 3.0
GALAP Galium [8]; 0.032 kg/ha
  Postemergence herbicidal rating GALAP: 4.0
GALAP Galium [8]; 0.062 kg/ha
  Postemergence herbicidal rating GALAP: 4.0
ABUTH Velvetleaf [9]; rate 0.016 kg/ha
  ABUTH herbicidal rating: 0.0
ABUTH Velvetleaf [9]; rate 0.125 kg/ha
  ABUTH herbicidal rating: 6.0
GALAP Galium [10]; rate 0.016 kg/ha
  GALAP herbicidal rating: 2.0
GALAP Galium [10]; rate 0.032 kg/ha
  GALAP herbicidal rating: 2.0
GALAP Galium [10]; rate 0.062 kg/ha
  GALAP herbicidal rating: 3.0
GALAP Galium [10]; rate 0.125 kg/ha
  GALAP herbicidal rating: 4.0
ZEAMX Corn, Field [11]; rate 0.016 kg/ha
  ZEAMX herbicidal rating: 1.0
ZEAMX Corn, Field [11]; rate 0.032 kg/ha
  ZEAMX herbicidal rating: 3.0
ZEAMX Corn, Field [11]; rate 0.062 kg/ha
  ZEAMX herbicidal rating: 5.0
ZEAMX Corn, Field [11]; rate 0.125 kg/ha
  ZEAMX herbicidal rating: 7.0
[12]; rate 0.016 kg/ha
  IPOHE herbicidal rating: 0.0
[12]; rate 0.032 kg/ha
  IPOHE herbicidal rating: 0.0
[12]; rate 0.062 kg/ha
  IPOHE herbicidal rating: 4.0
[12]; rate 0.125 kg/ha
  IPOHE herbicidal rating: 3.0
AMBEL Ragweed, Common [13]; rate 0.016 kg/ha
  AMBEL herbicidal rating: 0.0
AMBEL Ragweed, Common [13]; rate 0.032 kg/ha
  AMBEL herbicidal rating: 0.0
AMBEL Ragweed, Common [13]; rate 0.062 kg/ha
  AMBEL herbicidal rating: 3.0
AMBEL Ragweed, Common [13]; rate 0.125 kg/ha
  AMBEL herbicidal rating: 6.0
CASOB Sicklepod [14]; 0.008 kg/ha
  Postemergence herbicidal rating CASOB: 3.0
CASOB Sicklepod [14]; 0.016 kg/ha
  Postemergence herbicidal rating CASOB: 4.0
CASOB Sicklepod [14]; 0.032 kg/ha
  Postemergence herbicidal rating CASOB: 7.0
CASOB Sicklepod [14]; 0.062 kg/ha
  Postemergence herbicidal rating CASOB: 8.0
[15]; rate 0.016 kg/ha
  TRZAWR herbicidal rating: 0.0
[15]; rate 0.032 kg/ha
  TRZAWR herbicidal rating: 1.0
[15]; rate 0.062 kg/ha
  TRZAWR herbicidal rating: 2.0
[15]; rate 0.125 kg/ha
  TRZAWR herbicidal rating: 2.0
[16]; 0.008 kg/ha
  Postemergence herbicidal rating CHEAL: 9.0
[16]; 0.016 kg/ha
  Postemergence herbicidal rating CHEAL: 9.0
[16]; 0.032 kg/ha
  Postemergence herbicidal rating CHEAL: 9.0
[16]; 0.062 kg/ha
  Postemergence herbicidal rating CHEAL: 9.0
GLXMAW Soybean, Williams [17]; rate 0.016 kg/ha
  GLXMAW herbicidal rating: 1.0
GLXMAW Soybean, Williams [17]; rate 0.032 kg/ha
  GLXMAW herbicidal rating: 1.0
GLXMAW Soybean, Williams [17]; rate 0.062 kg/ha
  GLXMAW herbicidal rating: 1.0
GLXMAW Soybean, Williams [17]; rate 0.125 kg/ha
  GLXMAW herbicidal rating: 2.0
GLXMAW Soybean, Williams [18]; 0.008 kg/ha
  Postemergence herbicidal rating GLXMAW: 6.5
GLXMAW Soybean, Williams [18]; 0.016 kg/ha
  Postemergence herbicidal rating GLXMAW: 6.5
GLXMAW Soybean, Williams [18]; 0.032 kg/ha
  Postemergence herbicidal rating GLXMAW: 8.0
GLXMAW Soybean, Williams [18]; 0.062 kg/ha
  Postemergence herbicidal rating GLXMAW: 8.0
AMBEL Ragweed, Common [19]; 0.008 kg/ha
  Postemergence herbicidal rating AMBEL: 9.0
AMBEL Ragweed, Common [19]; 0.016 kg/ha
  Postemergence herbicidal rating AMBEL: 9.0
AMBEL Ragweed, Common [19]; 0.032 kg/ha
  Postemergence herbicidal rating AMBEL: 9.0
AMBEL Ragweed, Common [19]; 0.062 kg/ha
  Postemergence herbicidal rating AMBEL: 9.0
ZEAMX Corn, Field [20]; 0.008 kg/ha
  Postemergence herbicidal rating ZEAMX: 4.5
ZEAMX Corn, Field [20]; 0.016 kg/ha
  Postemergence herbicidal rating ZEAMX: 4.5
ZEAMX Corn, Field [20]; 0.032 kg/ha
  Postemergence herbicidal rating ZEAMX: 5.0
ZEAMX Corn, Field [20]; 0.062 kg/ha
  Postemergence herbicidal rating ZEAMX: 5.0
ECHOG Barnyardgrass [21]; 0.008 kg/ha
  Postemergence herbicidal rating ECHCG: 2.0
ECHOG Barnyardgrass [21]; 0.016 kg/ha
  Postemergence herbicidal rating ECHCG: 4.0
ECHOG Barnyardgrass [21]; 0.032 kg/ha
  Postemergence herbicidal rating ECHCG: 4.0
ECHOG Barnyardgrass [21]; 0.062 kg/ha
  Postemergence herbicidal rating ECHCG: 6.0
[22]; rate 0.016 kg/ha
  CHEAL herbicidal rating: 9.0
[22]; rate 0.032 kg/ha
  CHEAL herbicidal rating: 9.0
[22]; rate 0.062 kg/ha
  CHEAL herbicidal rating: 9.0
[22]; rate 0.125 kg/ha
  CHEAL herbicidal rating: 9.0
SETVI Foxtail, Green [23]; 0.008 kg/ha
  Postemergence herbicidal rating SETVI: 7.0
SETVI Foxtail, Green [23]; 0.016 kg/ha
  Postemergence herbicidal rating SETVI: 6.0
SETVI Foxtail, Green [23]; 0.032 kg/ha
  Postemergence herbicidal rating SETVI: 9.0
SETVI Foxtail, Green [23]; 0.062 kg/ha
  Postemergence herbicidal rating SETVI: 9.0
ORYSAT Rice, Tebonnet [24]; rate 0.016 kg/ha
  ORYSAT herbicidal rating: 0.0
ORYSAT Rice, Tebonnet [24]; rate 0.032 kg/ha
  ORYSAT herbicidal rating: 1.0
ORYSAT Rice, Tebonnet [24]; rate 0.062 kg/ha
  ORYSAT herbicidal rating: 2.0
ORYSAT Rice, Tebonnet [24]; rate 0.125 kg/ha
  ORYSAT herbicidal rating: 4.0
